Peptide text beside a SMILES is read from it.

The target in assay [1] is T1, Solute carrier family 15 member 1 (Homo sapiens) (UniProt P46059).
T1 sequence (whole entry): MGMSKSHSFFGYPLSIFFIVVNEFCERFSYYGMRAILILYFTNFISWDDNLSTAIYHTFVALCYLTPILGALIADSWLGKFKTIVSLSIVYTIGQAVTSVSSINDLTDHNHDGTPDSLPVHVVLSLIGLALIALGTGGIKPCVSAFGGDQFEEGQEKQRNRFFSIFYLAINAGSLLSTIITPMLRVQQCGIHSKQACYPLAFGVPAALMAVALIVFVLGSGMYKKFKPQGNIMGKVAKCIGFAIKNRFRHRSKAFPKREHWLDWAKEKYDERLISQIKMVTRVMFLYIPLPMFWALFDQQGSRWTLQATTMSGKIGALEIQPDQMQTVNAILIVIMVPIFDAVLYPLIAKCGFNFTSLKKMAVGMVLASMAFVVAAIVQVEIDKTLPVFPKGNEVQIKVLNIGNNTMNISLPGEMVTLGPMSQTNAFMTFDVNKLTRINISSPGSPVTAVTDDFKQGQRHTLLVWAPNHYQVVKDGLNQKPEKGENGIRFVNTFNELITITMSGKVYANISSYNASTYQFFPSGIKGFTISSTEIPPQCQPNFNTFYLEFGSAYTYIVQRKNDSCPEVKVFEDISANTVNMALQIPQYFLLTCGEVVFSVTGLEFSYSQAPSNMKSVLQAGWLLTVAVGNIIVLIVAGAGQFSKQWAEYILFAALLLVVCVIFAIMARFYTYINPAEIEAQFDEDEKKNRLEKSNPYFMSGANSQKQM
Nature of the assay: TP_TRANSPORTER: trans-stimulation of Sulpiride uptake (Surpiride: 100 uM, Gly-Sar: 1000 uM) in Caco-2 cells. The format is functional, cell-based.

The target of assay [2] is T1, Solute carrier family 15 member 1 (Homo sapiens). Nature of the assay: TP_TRANSPORTER: inhibition of Sulpiride uptake (Surpiride: 100 uM, Gly-Sar: 1000 uM) in Caco-2 cells. On the set-up: scale not given: the % may be the effect or the level left. It counts as functional, cell-based.

Turning to `CN(CC(=O)O)C(=O)CN` (HELM PEPTIDE1{G.[Sar]}$$$$V2.0), the Activity in assay [1] is 135%; in assay [2], 65%.
